According to ChEMBL document CHEMBL3779780, “Chroman-4-one and chromone based somatostatin β-turn mimetics” (Eur J Med Chem, 2016):

Tests used:
[1] = target: T1, Somatostatin receptor type 2 (Homo sapiens, UniProt P30874); assay: Displacement of [125I]tyr11-SRIF from human sst2 receptor after 60 mins by liquid scintillation counting method
[2] = target: T2, Somatostatin receptor type 4 (Homo sapiens, UniProt P31391); assay: Displacement of [125I]tyr11-SRIF from human sst4 receptor after 60 mins by liquid scintillation counting method
T2 sequence (P31391 whole entry): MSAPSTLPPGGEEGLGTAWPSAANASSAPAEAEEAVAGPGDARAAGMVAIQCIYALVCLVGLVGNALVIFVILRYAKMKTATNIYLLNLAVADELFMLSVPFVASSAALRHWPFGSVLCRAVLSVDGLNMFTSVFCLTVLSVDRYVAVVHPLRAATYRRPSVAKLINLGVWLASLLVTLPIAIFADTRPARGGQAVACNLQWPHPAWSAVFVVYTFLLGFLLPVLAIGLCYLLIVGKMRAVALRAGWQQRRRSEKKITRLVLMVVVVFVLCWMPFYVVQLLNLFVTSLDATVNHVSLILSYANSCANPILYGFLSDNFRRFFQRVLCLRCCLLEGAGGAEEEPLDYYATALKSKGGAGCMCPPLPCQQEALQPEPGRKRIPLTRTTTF

[3] = target: T1, Somatostatin receptor type 2; assay: Binding affinity to human sst2 receptor
[4] = target: T2, Somatostatin receptor type 4; assay: Binding affinity to human sst4 receptor
[5] = target: T2, Somatostatin receptor type 4; assay: Displacement of [125I]-SRIF14 from human sst4 receptor

T1 sequence (P30874 whole entry): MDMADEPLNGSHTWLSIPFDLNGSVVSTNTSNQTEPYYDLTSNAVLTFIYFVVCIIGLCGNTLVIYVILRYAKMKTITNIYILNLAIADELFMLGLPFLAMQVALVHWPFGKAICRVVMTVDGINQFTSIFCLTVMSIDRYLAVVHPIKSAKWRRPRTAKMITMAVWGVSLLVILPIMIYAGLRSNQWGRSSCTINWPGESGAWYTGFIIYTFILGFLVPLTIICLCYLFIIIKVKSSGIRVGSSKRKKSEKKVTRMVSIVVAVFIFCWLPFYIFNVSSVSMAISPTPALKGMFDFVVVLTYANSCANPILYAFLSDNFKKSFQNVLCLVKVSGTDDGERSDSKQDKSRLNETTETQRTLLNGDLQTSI

Row | Ki [1] [µM] | Ki [2] [µM] | Ki [3] [µM] | Ki [4] [µM] | Ki [5] [µM] | SMILES
1 | 6.85 | 7.09 | – | – | – | NCCCc1cc(Cl)cc2c1OC(CCc1cccc3ccccc13)CC2=O (racemic)
2 | – | – | 4.69 | 2.02 | – | NCCCCCOc1ccccc1OCCc1c[nH]c2ccccc12
3 | – | – | – | – | 2.05 | CC(C)CC[C@]1(Cc2ccccc2)NC=C([C@@]2(Cc3ccccc3)NC=C([C@]3(CCCN)NC=C([C@@]4(CC(C)C)NC=C(Cc5ccccc5)C4=O)C3=O)C2=O)C1=O
4 | 2.66 | 1.17 | – | – | – | NCCCc1cc(Cl)cc2c(=O)cc(CCc3cccc4ccccc34)oc12
